Assay results: patent publication US7319094B2, “Increased and sustained in vivo gene expression using a nucleic acid, histone and amphipathic compound composition” (Rhode Island Hospital, priority 2001, dated 2008)

Assays:
AD7c-NTP = AD7c-NTP expression in stably transfected PNET2 cells (LacSwitch II inducible system), Western blot / MICE assay; assay type: cell-based, human
Text: Prior to the invention, cells stably transfected with AD7c-NTP could not be maintained because of progressive cell death. Therefore, an inducible system of AD7c-NTP expression was established using the LacSwitch II mammalian expression vector (Stratagene, La Jolla, Calif.). PNET2 human CNS neuronal cells were stably transfected with the pCMVLacII vector in which the Lac repressor protein driven by a CMV promoter. The Lac repressor protein is targeted to the nucleus by the nuclear localization sequence. […]
Standard Western blot assays wew used to measure cellular levels of p53, Bcl-2, p21/Waf1, phospho-tau, tau, c-fos, NTP, and activated (phosphorylated) forms of Erk mitogen activated protein (MAP) kinase, amino-terminal c-jun-activated kinase (pJNK), and p38/HOG1. […] Protein concentrations were measured using the BCA assay (Pierce, Rockford, Ill.). Samples containing 60 μg of protein were fractionated by sodium dodecyl sulfate polyacrylamide gel electrophoresis (SDS-PAGE), then transferred to PVDF membranes, and analyzed by Western immunoblotting. Immunoreactivity was detected with horseradish peroxidase conjugated secondary IgG and PicoWest enhanced chemiluminescence reagents (Pierce Chemical Company, Rockford, Ill.). CAT activity was measured using known methods. […]

GAPDH = GAPDH immunoreactivity in AD7c-NTP-transfected PNET2 cells, MICE assay; assay type: cell-based, human; details: IPTG 3 mM
Text: The MICE assay is known in the art (e.g., as described by de la Monte et al., 1999, Biotechniques 26:107301076). The assay is a rapid and sensitive method for quantifying immunoreactivity in 96-well micro-cultures and combines the advantages of the enzyme-linked immunosorbant assay with immunocytochemical staining to permit sensitive in situ quantification of protein expression with values normalized to cell density. The cells were fixed in Histochoice (Amresco, Solon, Ohio), permeabilized with 0.05% saponin in Tris-buffered saline (50 mM Tris, pH 7.5, 0.9% NaCl; TBS), and blocked with Superblock-TBS (Pierce, Rockford, Ill.). […] Immunoreactivity was detected using horseradish peroxidase conjugated secondary antibody (Pierce, Rockford, Ill.) and the TMB soluble peroxidase substrate (Pierce, Rockford, Ill.). Absorbances were measured at 450 nm using a Spectracount plate reader.
To compare the levels of protein expression it was necessary to correct for differences in cell density. […] The absorbances (560 nm) were measured using a Spectracount plate reader (Packard Instrument Company, Meriden, Conn.). The MICE index was calculated from the ratio of the absorbances measured for immunoreactivity and cell density. Coomassie blue absorbance increases linearly with cell density between 1×10^4 and 5×10^5 cells per well. Eight or 16 replicate culture wells were analyzed in each experiment. […]

## CC(C)S[C@@H]1O[C@H](CO)[C@H](O)[C@H](O)[C@H]1O [IPTG, Isopropyl-1-[…]-D-thiogalactopyranoside]
AD7c-NTP; IPTG 3 mM, 24 hours of induction
  increase in N314-immunoreactive NTP (MICE assay): greater than five-fold
AD7c-NTP; PNET2 clones
  optimum concentration for inducing gene expression: 3 mM
GAPDH
  levels of GAPDH (MICE assay): no change
